Experimental data published in PubChem BioAssay AID1845200 (Molecular Pharmacology Branch, DTP, NCI, 2023).

System: ASPS-1 complex tumor spheroids, viability
Test: Anticancer human tumor ASPS-1 cell line growth inhibition;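 note: spheroids exposed to agents for 7 days after 3 days of growth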;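 for viability, T/C: 100% = DMSO vehicle treated spheroids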
Conditions: for IC50: curve of first compound; for viability, T/C: stronger effect = lower value
Procedure, shortened: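 Complex spheroids of malignant cells with endothelial cells and mesenchymal stem cells; agents alone or combined, from near clinical Cmax (or 10 microM if unknown) down in half-log steps, 0.25% DMSO final.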

SMILES: CC(C)n1c(=O)n(C)c2cnc3cc(F)c(-c4ccc(OCCCN5CCCCC5)nc4)cc3c21 + COc1cc2c(cc1O)CCNC21CSC2c3c(OC(C)=O)c(C)c4c(c3C(COC1=O)N1C(O)C3Cc5cc(C)c(OC)c(O)c5C(C21)N3C)OCO4
- IC50 (second compound 30 pM): > 10 µM
- IC50 (second compound 94.9 pM): > 10 µM
- IC50 (second compound 0.0003 µM): 0.868 µM
- IC50 (second compound 0.000949 µM): < 0.0316 µM
- IC50 (second compound 0.003 µM): < 0.0316 µM
- viability, T/C (second compound 30 pM, first compound 0.0316 µM): 105%
- viability, T/C (second compound 30 pM, first compound 0.1 µM): 99.5%
- viability, T/C (second compound 30 pM, first compound 0.316 µM): 98.2%
- viability, T/C (second compound 30 pM, first compound 1 µM): 92.5%
- viability, T/C (second compound 30 pM, first compound 3.16 µM): 83.7%
- viability, T/C (second compound 30 pM, first compound 10 µM): 50%
- viability, T/C (second compound 94.9 pM, first compound 0.0316 µM): 96.1%
- viability, T/C (second compound 94.9 pM, first compound 0.1 µM): 84%
- viability, T/C (second compound 94.9 pM, first compound 0.316 µM): 78%
- viability, T/C (second compound 94.9 pM, first compound 1 µM): 72.7%
- viability, T/C (second compound 94.9 pM, first compound 3.16 µM): 64.4%
- viability, T/C (second compound 94.9 pM, first compound 10 µM): 48.7%
- viability, T/C (second compound 0.0003 µM, first compound 0.0316 µM): 68.7%
- viability, T/C (second compound 0.0003 µM, first compound 0.1 µM): 62.7%
- viability, T/C (second compound 0.0003 µM, first compound 0.316 µM): 54.7%
- viability, T/C (second compound 0.0003 µM, first compound 1 µM): 50.4%
- viability, T/C (second compound 0.0003 µM, first compound 3.16 µM): 41.6%
- viability, T/C (second compound 0.0003 µM, first compound 10 µM): 31.1%
- viability, T/C (second compound 0.000949 µM, first compound 0.0316 µM): 48.7%
- viability, T/C (second compound 0.000949 µM, first compound 0.1 µM): 45.6%
- viability, T/C (second compound 0.000949 µM, first compound 0.316 µM): 35.3%
- viability, T/C (second compound 0.000949 µM, first compound 1 µM): 25.1%
- viability, T/C (second compound 0.000949 µM, first compound 3.16 µM): 19.9%
- viability, T/C (second compound 0.000949 µM, first compound 10 µM): 18.1%
- viability, T/C (second compound 0.003 µM, first compound 0.0316 µM): 15%
- viability, T/C (second compound 0.003 µM, first compound 0.1 µM): 5.65%
- viability, T/C (second compound 0.003 µM, first compound 0.316 µM): 1.44%
- viability, T/C (second compound 0.003 µM, first compound 1 µM): 0.39%
- viability, T/C (second compound 0.003 µM, first compound 3.16 µM): 0.32%
- viability, T/C (second compound 0.003 µM, first compound 10 µM): 0.46%

SMILES: CNCc1ccc(-c2cc(-c3nc(-c4ccc(S(=O)(=O)C(C)C)cc4)cnc3N)on2)cc1 + Cn1nnc2c(C(N)=O)ncn2c1=O
- IC50 (second compound 1 µM): 0.565 µM
- IC50 (second compound 3.16 µM): 0.738 µM
- IC50 (second compound 10 µM): 0.259 µM
- IC50 (second compound 31.6 µM): 0.292 µM
- IC50 (second compound 100 µM): 0.184 µM
- viability, T/C (second compound 1 µM, first compound 0.00949 µM): 104%
- viability, T/C (second compound 1 µM, first compound 0.03 µM): 104%
- viability, T/C (second compound 1 µM, first compound 0.0949 µM): 105%
- viability, T/C (second compound 1 µM, first compound 0.3 µM): 72.5%
- viability, T/C (second compound 1 µM, first compound 0.949 µM): 31.1%
- viability, T/C (second compound 1 µM, first compound 3 µM): 7.06%
- viability, T/C (second compound 3.16 µM, first compound 0.00949 µM): 109%
- viability, T/C (second compound 3.16 µM, first compound 0.03 µM): 106%
- viability, T/C (second compound 3.16 µM, first compound 0.0949 µM): 92.6%
- viability, T/C (second compound 3.16 µM, first compound 0.3 µM): 69.3%
- viability, T/C (second compound 3.16 µM, first compound 0.949 µM): 45.6%
- viability, T/C (second compound 3.16 µM, first compound 3 µM): 9.69%
- viability, T/C (second compound 10 µM, first compound 0.00949 µM): 98.8%
- viability, T/C (second compound 10 µM, first compound 0.03 µM): 103%
- viability, T/C (second compound 10 µM, first compound 0.0949 µM): 87%
- viability, T/C (second compound 10 µM, first compound 0.3 µM): 40%
- viability, T/C (second compound 10 µM, first compound 0.949 µM): 30.4%
- viability, T/C (second compound 10 µM, first compound 3 µM): 6.72%
- viability, T/C (second compound 31.6 µM, first compound 0.00949 µM): 88.5%
- viability, T/C (second compound 31.6 µM, first compound 0.03 µM): 78.9%
- viability, T/C (second compound 31.6 µM, first compound 0.0949 µM): 67.4%
- viability, T/C (second compound 31.6 µM, first compound 0.3 µM): 48.7%
- viability, T/C (second compound 31.6 µM, first compound 0.949 µM): 31.2%
- viability, T/C (second compound 31.6 µM, first compound 3 µM): 12.9%
- viability, T/C (second compound 100 µM, first compound 0.00949 µM): 79.1%
- viability, T/C (second compound 100 µM, first compound 0.03 µM): 78.4%
- viability, T/C (second compound 100 µM, first compound 0.0949 µM): 58.2%
- viability, T/C (second compound 100 µM, first compound 0.3 µM): 41.6%
- viability, T/C (second compound 100 µM, first compound 0.949 µM): 21.7%
- viability, T/C (second compound 100 µM, first compound 3 µM): 1.51%
